In PMC10653547, “Synergistic effect of two antimicrobial peptides, BP203 and MAP-0403 J-2 with conventional antibiotics against colistin-resistant Escherichia coli and Klebsiella pneumoniae clinical isolates” (PLOS ONE, 2023):

Legend:
[1] = test system: colistin-resistant E. coli clinical isolates; experiment: Disk diffusion antimicrobial susceptibility testing (CLSI); format: cell-based, Escherichia coli; conditions: for %Resistance: ten E. coli isolates, disk diffusion
Procedure: (§1) Ten non-duplicate clinical isolates of colistin-resistant E. coli (EC) and ten non-duplicate clinical isolates of colistin-resistant K. pneumoniae (KP) were obtained from the bacterial repository of the Division of Infectious Diseases and Tropical Medicine, Department of Medicine, Faculty of Medicine Siriraj Hospital, Mahidol University. The species identification was conducted through standard biochemical tests. Antimicrobial susceptibility testing was carried out using the disk diffusion method following CLSI guidelines. Additionally, the assessment of colistin resistance in all isolates was performed by broth microdilution following CLSI recommendations. […] The amino acid sequences of BP203 and MAP-0403 J-2 were retrieved from previous studies. These peptides are BP100 and MAP-0403 analogs, respectively. […] Antibiotic disks and defibrinated sheep blood were obtained from Oxoid (Basingstoke, UK). All culture media were purchased from Becton Dickinson (Frankin Lakes, NJ, USA). All chemicals were obtained from Sigma-Aldrich (St. Louis, MO, USA).

[2] = test system: colistin-resistant K. pneumoniae clinical isolates; experiment: Checkerboard assay for synergy testing; format: cell-based, Klebsiella pneumoniae
Procedure: (§2) The synergistic activities of various two-antimicrobial combinations against colistin-resistant E. coli and K. pneumoniae isolates were evaluated using the checkerboard assay, which was performed in 96-well plates. […] Two-fold serial dilutions of peptides and antibiotics were independently prepared in CAMHB. Afterward, a mixture of different concentrations of the antibiotics and peptides was added to the wells of the microplates. Antibiotics and peptides were also dispended alone in the first row and the first column, respectively. Bacterial inoculum was added to the 96-well plate to achieve a final concentration of 5 × 10^5 CFU/mL. Then, plates were incubated at 37 °C for 20–24 h. MICs were recorded as the minimum concentration of antimicrobial agents without bacterial growth. The interaction between the antimicrobials was determined by calculating the fractional inhibitory concentration index (FICI) according to the formula: FICI = FIC(drug A) + FIC(drug B), where FIC = the MIC of the drug when in the combination/MIC of drug tested individually.

[3] = test system: colistin-resistant E. coli clinical isolates; experiment: Checkerboard assay for synergy testing; format: cell-based, Escherichia coli
Procedure: as §2

[4] = test system: colistin-resistant K. pneumoniae clinical isolates; experiment: Disk diffusion antimicrobial susceptibility testing (CLSI); on Interpreted results of disk diffusion: key: R: resistant; I: intermediate; SDD: susceptible-dose dependent; S: sensitive; format: cell-based, Klebsiella pneumoniae; conditions: for %Resistance: ten K. pneumoniae isolates, disk diffusion
Procedure: as §1

[5] = isolate KP-01, checkerboard Chloramphenicol+BP203
[6] = isolate KP-01, checkerboard Chloramphenicol+MAP-0403 J-2
[7] = isolate KP-02, checkerboard Chloramphenicol+BP203
[8] = isolate KP-02, checkerboard Chloramphenicol+MAP-0403 J-2
[9] = isolate KP-03, checkerboard Chloramphenicol+BP203
[10] = isolate KP-03, checkerboard Chloramphenicol+MAP-0403 J-2
[11] = isolate KP-04, checkerboard Chloramphenicol+BP203
[12] = isolate KP-04, checkerboard Chloramphenicol+MAP-0403 J-2
[13] = isolate KP-05, checkerboard Chloramphenicol+BP203
[14] = isolate KP-05, checkerboard Chloramphenicol+MAP-0403 J-2
[15] = isolate KP-06, checkerboard Chloramphenicol+BP203
[16] = isolate KP-06, checkerboard Chloramphenicol+MAP-0403 J-2
[17] = isolate KP-07, checkerboard Chloramphenicol+BP203
[18] = isolate KP-07, checkerboard Chloramphenicol+MAP-0403 J-2
[19] = isolate KP-08, checkerboard Chloramphenicol+BP203
[20] = isolate KP-08, checkerboard Chloramphenicol+MAP-0403 J-2
[21] = isolate KP-09, checkerboard Chloramphenicol+BP203
[22] = isolate KP-09, checkerboard Chloramphenicol+MAP-0403 J-2
[23] = isolate KP-10, checkerboard Chloramphenicol+BP203
[24] = isolate KP-10, checkerboard Chloramphenicol+MAP-0403 J-2
[25] = isolate EC-01, checkerboard Chloramphenicol+BP203
[26] = isolate EC-01, checkerboard Chloramphenicol+MAP-0403 J-2
[27] = isolate EC-02, checkerboard Chloramphenicol+BP203
[28] = isolate EC-02, checkerboard Chloramphenicol+MAP-0403 J-2
[29] = isolate EC-03, checkerboard Chloramphenicol+BP203
[30] = isolate EC-03, checkerboard Chloramphenicol+MAP-0403 J-2
[31] = isolate EC-04, checkerboard Chloramphenicol+BP203
[32] = isolate EC-05, checkerboard Chloramphenicol+BP203
[33] = isolate EC-05, checkerboard Chloramphenicol+MAP-0403 J-2
[34] = isolate EC-06, checkerboard Chloramphenicol+BP203
[35] = isolate EC-06, checkerboard Chloramphenicol+MAP-0403 J-2
[36] = isolate EC-07, checkerboard Chloramphenicol+BP203
[37] = isolate EC-07, checkerboard Chloramphenicol+MAP-0403 J-2
[38] = isolate EC-08, checkerboard Chloramphenicol+BP203
[39] = isolate EC-08, checkerboard Chloramphenicol+MAP-0403 J-2
[40] = isolate EC-09, checkerboard Chloramphenicol+BP203
[41] = isolate EC-09, checkerboard Chloramphenicol+MAP-0403 J-2
[42] = isolate EC-10, checkerboard Chloramphenicol+BP203
[43] = isolate EC-10, checkerboard Chloramphenicol+MAP-0403 J-2
[44] = isolate EC-01, checkerboard Ceftazidime+MAP-0403 J-2
[45] = isolate EC-02, checkerboard Ceftazidime+MAP-0403 J-2
[46] = isolate EC-03, checkerboard Ceftazidime+MAP-0403 J-2
[47] = isolate EC-04, checkerboard Ceftazidime+MAP-0403 J-2
[48] = isolate EC-05, checkerboard Ceftazidime+MAP-0403 J-2
[49] = isolate EC-06, checkerboard Ceftazidime+MAP-0403 J-2
[50] = isolate EC-07, checkerboard Ceftazidime+MAP-0403 J-2
[51] = isolate EC-08, checkerboard Ceftazidime+MAP-0403 J-2
[52] = isolate EC-09, checkerboard Ceftazidime+MAP-0403 J-2
[53] = isolate EC-10, checkerboard Ceftazidime+MAP-0403 J-2

O=C(N[C@H](CO)[C@H](O)c1ccc([N+](=O)[O-])cc1)C(Cl)Cl [C, chloramphenicol]
512 µg/mL: MIC alone [2, 5] | MIC alone [2, 7] | MIC alone [2, 8] | MIC alone [2, 15] | MIC alone [2, 17]
R: Interpreted results of disk diffusion ([1]; EC-01) | Interpreted results of disk diffusion ([1]; EC-02) | Interpreted results of disk diffusion ([1]; EC-03) | Interpreted results of disk diffusion ([1]; EC-04) | Interpreted results of disk diffusion ([1]; EC-05) | Interpreted results of disk diffusion ([1]; EC-07) | Interpreted results of disk diffusion ([1]; EC-08) | Interpreted results of disk diffusion ([1]; EC-09) | Interpreted results of disk diffusion ([1]; EC-10) | Interpreted results of disk diffusion ([4]; KP-01) | Interpreted results of disk diffusion ([4]; KP-02) | Interpreted results of disk diffusion ([4]; KP-06) | Interpreted results of disk diffusion ([4]; KP-10)
1 µg/mL: MIC combination [2, 19] | MIC combination [3, 25] | MIC combination [3, 31]
8 µg/mL: MIC alone [2, 9] | MIC alone [2, 10] | MIC alone [2, 11] | MIC alone [2, 12] | MIC combination [2, 16] | MIC alone [2, 18] | MIC alone [2, 20] | MIC combination [2, 23] | MIC alone [3, 35]
S: Interpreted results of disk diffusion ([1]; EC-06) | Interpreted results of disk diffusion ([4]; KP-03) | Interpreted results of disk diffusion ([4]; KP-04) | Interpreted results of disk diffusion ([4]; KP-05) | Interpreted results of disk diffusion ([4]; KP-08)
64 µg/mL: MIC alone [2, 23] | MIC alone [2, 24] | MIC combination [3, 26] | MIC alone [3, 27] | MIC alone [3, 28] | MIC alone [3, 29] | MIC alone [3, 30] | MIC alone [3, 32] | MIC alone [3, 33] | MIC combination [3, 36] | MIC alone [3, 37] | MIC alone [3, 38] | MIC alone [3, 39] | MIC combination [3, 40] | MIC combination [3, 41] | MIC combination [3, 43]
16 µg/mL: MIC combination [2, 22] | MIC combination [3, 30] | MIC alone [3, 34] | MIC combination [3, 39]
32 µg/mL: MIC alone [2, 16] | MIC alone [2, 21] | MIC alone [2, 22] | MIC combination [3, 27] | MIC combination [3, 28] | MIC combination [3, 29] | MIC alone [3, 31] | MIC combination [3, 32] | MIC combination [3, 33] | MIC combination [3, 37] | MIC combination [3, 38] | MIC combination [3, 42]
90%: %Resistance [1]
40%: %Resistance [4]
2 µg/mL: MIC combination [2, 9] | MIC combination [2, 10] | MIC combination [2, 12] | MIC combination [2, 13]
256 µg/mL: MIC combination [2, 6] | MIC combination [2, 14] | MIC alone [3, 36] | MIC alone [3, 40] | MIC alone [3, 41] | MIC alone [3, 42] | MIC alone [3, 43]
128 µg/mL: MIC combination [2, 5] | MIC combination [2, 7] | MIC combination [2, 8] | MIC combination [2, 15] | MIC combination [2, 17] | MIC alone [3, 25] | MIC alone [3, 26] | MIC combination ([3]; isolate EC-04, checkerboard Chloramphenicol+MAP-0403 J-2)
1020 µg/mL: MIC alone [2, 6] | MIC alone [2, 14]
4 µg/mL: MIC combination [2, 11] | MIC alone [2, 13] | MIC combination [2, 18] | MIC alone [2, 19] | MIC combination [2, 20] | MIC combination [2, 21] | MIC combination [2, 24] | MIC combination [3, 34] | MIC combination [3, 35]
I: Interpreted results of disk diffusion ([4]; KP-07) | Interpreted results of disk diffusion ([4]; KP-09)

CC(C)(O/N=C(\C(=O)N[C@@H]1C(=O)N2C(C(=O)[O-])=C(C[n+]3ccccc3)CS[C@H]12)c1csc(N)n1)C(=O)O [CAZ, ceftazidime]
I: Interpreted results of disk diffusion ([1]; EC-02) | Interpreted results of disk diffusion ([1]; EC-07) | Interpreted results of disk diffusion ([1]; EC-09)
16 µg/mL: MIC combination ([2]; isolate KP-01, checkerboard Ceftazidime+MAP-0403 J-2) | MIC combination ([2]; isolate KP-02, checkerboard Ceftazidime+MAP-0403 J-2) | MIC alone [3, 45] | MIC alone [3, 46] | MIC alone [3, 49] | MIC alone [3, 50] | MIC alone [3, 53]
0.0625 µg/mL: MIC combination [3, 48]
1 µg/mL: MIC combination [3, 46] | MIC combination [3, 47] | MIC alone [3, 48] | MIC alone [3, 51]
4 µg/mL: MIC combination [3, 45] | MIC alone [3, 47] | MIC combination [3, 49] | MIC combination [3, 52]
R: Interpreted results of disk diffusion ([1]; EC-01) | Interpreted results of disk diffusion ([1]; EC-03) | Interpreted results of disk diffusion ([1]; EC-04) | Interpreted results of disk diffusion ([1]; EC-06) | Interpreted results of disk diffusion ([4]; KP-01) | Interpreted results of disk diffusion ([4]; KP-02) | Interpreted results of disk diffusion ([4]; KP-03) | Interpreted results of disk diffusion ([4]; KP-04) | Interpreted results of disk diffusion ([4]; KP-05) | Interpreted results of disk diffusion ([4]; KP-06) | Interpreted results of disk diffusion ([4]; KP-07) | Interpreted results of disk diffusion ([4]; KP-08) | Interpreted results of disk diffusion ([4]; KP-09) | Interpreted results of disk diffusion ([4]; KP-10)
40%: %Resistance [1]
256 µg/mL: MIC combination ([2]; isolate KP-07, checkerboard Ceftazidime+MAP-0403 J-2)
8 µg/mL: MIC alone [3, 44]
512 µg/mL: MIC combination ([2]; isolate KP-03, checkerboard Ceftazidime+MAP-0403 J-2) | MIC combination ([2]; isolate KP-04, checkerboard Ceftazidime+MAP-0403 J-2) | MIC combination ([2]; isolate KP-05, checkerboard Ceftazidime+MAP-0403 J-2) | MIC combination ([2]; isolate KP-08, checkerboard Ceftazidime+MAP-0403 J-2) | MIC combination ([2]; isolate KP-09, checkerboard Ceftazidime+MAP-0403 J-2)
2 µg/mL: MIC combination [3, 50] | MIC combination [3, 53]
0.25 µg/mL: MIC combination [3, 51]
100%: %Resistance [4]
S: Interpreted results of disk diffusion ([1]; EC-05) | Interpreted results of disk diffusion ([1]; EC-08) | Interpreted results of disk diffusion ([1]; EC-10)
32 µg/mL: MIC combination ([2]; isolate KP-06, checkerboard Ceftazidime+MAP-0403 J-2) | MIC combination ([2]; isolate KP-10, checkerboard Ceftazidime+MAP-0403 J-2) | MIC alone [3, 52]
0.5 µg/mL: MIC combination [3, 44]
